The values that follow come from ChEMBL document CHEMBL4304757, “Synthetic heterocyclic candidates as promising α-glucosidase inhibitors: An overview” (Eur J Med Chem, 2019).

The assay concerns the target Alpha glucosidase (Homo sapiens, UniProt O43451+P10253+P14410+Q2M2H8). The assay can be described thus: Inhibition of alpha-glucosidase (unknown origin) using p-nitrophenyl-alpha-d-glucopyranoside as substrate preincubated for 15 mins followed by substrate addition measured after 30 mins. The format is protein assay.
In general, IC50 refers to the concentration needed to halve the response being measured. Low values mean higher potency, high ones lower potency. `Cc1ccc(C(c2c[nH]c3ccc(C(=O)NNS(=O)(=O)c4ccc(Br)cc4)cc23)c2c[nH]c3ccc(C(=O)NNS(=O)(=O)c4ccc(Br)cc4)cc23)cc1` came in with a half-maximal inhibitory concentration (IC50) of 0.1 to 5.1 µM. The same measure for `Cc1ccc(C(c2c[nH]c3ccc(C(=O)NNS(=O)(=O)c4cccc(Cl)c4Cl)cc23)c2c[nH]c3ccc(C(=O)NNS(=O)(=O)c4cccc(Cl)c4Cl)cc23)cc1`: 0.1 to 5.1 µM; for `O=C(CSc1nnc(-c2ccc(Br)cc2)c(-c2ccc(Br)cc2)n1)Nc1nc(-c2ccc(F)cc2)cs1`: 2.8 to 14 µM; for `Cc1ccc(-c2csc(N/N=C3\C(=O)Nc4ccc(F)cc43)n2)cc1`: 5.3 to 35 µM. The same measure for `Cc1ccc(C(c2c[nH]c3ccc(C(=O)NNS(=O)(=O)c4ccc(Cl)cc4Cl)cc23)c2c[nH]c3ccc(C(=O)NNS(=O)(=O)c4ccc(Cl)cc4Cl)cc23)cc1`: 0.1 to 5.1 µM; for `Cc1ccc(C(c2c[nH]c3ccc(C(=O)NNS(=O)(=O)c4cc(Cl)cc(Cl)c4)cc23)c2c[nH]c3ccc(C(=O)NNS(=O)(=O)c4cc(Cl)cc(Cl)c4)cc23)cc1`: 0.1 to 5.1 µM.

On to `Cc1ccc(-c2csc(NC(=O)CSc3nnc(-c4ccc(F)cc4)c(-c4ccc(F)cc4)n3)n2)cc1`, for which the IC50 fell in the range of 2.8 to 14 µM. Consider `O=C(CSc1nnc(-c2ccccc2)c(-c2ccccc2)n1)Nc1nc(-c2ccc(F)cc2)cs1`, for which the IC50 is 2.8 to 14 µM. The same measure for `Cc1ccc(C(c2c[nH]c3ccc(C(=O)NNS(=O)(=O)c4ccc(C)cc4)cc23)c2c[nH]c3ccc(C(=O)NNS(=O)(=O)c4ccc(C)cc4)cc23)cc1`: 0.1 to 5.1 µM; for `O=C(CSc1nnc(-c2ccc(Br)cc2)c(-c2ccc(Br)cc2)n1)Nc1nc(-c2ccc(Cl)cc2)cs1`: 2.8 to 14 µM; for `Cc1ccc(-c2csc(N/N=C3\C(=O)Nc4ccccc43)n2)cc1`: 5.3 to 35 µM.

`Cc1ccc(C(c2c[nH]c3ccc(C(=O)NNS(=O)(=O)c4cc(Cl)ccc4Cl)cc23)c2c[nH]c3ccc(C(=O)NNS(=O)(=O)c4cc(Cl)ccc4Cl)cc23)cc1`: the IC50 fell in the range of 0.1 to 5.1 µM.

`O=C(CSc1nnc(-c2ccc(F)cc2)c(-c2ccc(F)cc2)n1)Nc1nc(-c2ccc(Br)cc2)cs1` displayed a concentration for half-maximal inhibition (IC50) of 2.8 to 14 µM.

The molecule `Cc1ccc(C(c2c[nH]c3ccc(C(=O)NNS(=O)(=O)c4ccccc4Cl)cc23)c2c[nH]c3ccc(C(=O)NNS(=O)(=O)c4ccccc4Cl)cc23)cc1` registered an IC50 of 0.1 to 5.1 µM.

For the molecule `Cc1ccc(C(c2c[nH]c3ccc(C(=O)NNS(=O)(=O)c4cc(Cl)c(Cl)cc4Cl)cc23)c2c[nH]c3ccc(C(=O)NNS(=O)(=O)c4cc(Cl)c(Cl)cc4Cl)cc23)cc1`, the IC50 lay in the range of 0.3 to 2.5 µM. The molecule `COc1ccc(-c2csc(N/N=C3\C(=O)N(C)c4ccccc43)n2)cc1` returned a concentration for half-maximal inhibition (IC50) of 5.3 to 35 µM. The same measure for `CCCn1cc(C2(c3cn(CCC)c4ccccc34)C(=O)Nc3ccccc32)c2ccccc21`: 5.9 to 145 µM; for `Cc1ccc(C(c2c[nH]c3ccc(C(=O)NNS(=O)(=O)c4ccccc4Br)cc23)c2c[nH]c3ccc(C(=O)NNS(=O)(=O)c4ccccc4Br)cc23)cc1`: 0.1 to 5.1 µM.

On to `Cc1ccc(-c2csc(NC(=O)CSc3nnc(-c4ccccc4)c(-c4ccccc4)n3)n2)cc1`, for which the IC50 fell in the range of 2.8 to 14 µM. The same measure for `O=c1ccc2ccc(OCC(O)CSc3nnc(-c4cccc(F)c4)c(-c4cccc(F)c4)n3)cc2o1` (configuration not stated): 32 to 148 µM; for `Cc1cc(C)c2c(c1)/C(=N/Nc1nc(-c3ccc(Br)cc3)cs1)C(=O)N2`: 5.3 to 35 µM; for `Cc1ccc(-c2csc(N/N=C3\C(=O)Nc4c(C)cc(C)cc43)n2)cc1`: 5.3 to 35 µM. The same measure for `O=C(CSc1nnc(-c2ccc(Br)cc2)c(-c2ccc(Br)cc2)n1)Nc1nc(-c2ccccc2)cs1`: 2.8 to 14 µM; for `O=C1Nc2ccccc2C1(c1cn(Cc2ccccc2Cl)c2ccccc12)c1cn(Cc2ccccc2Cl)c2ccccc12`: 5.9 to 145 µM. The same measure for `COc1cc(-c2ccc([N+](=O)[O-])cc2)ccc1O[C@H](C)Cn1cc(-c2ccc(C(F)(F)F)cc2)nn1`: 14 to 218 µM.

`Cn1cc(C2(c3cn(C)c4ccccc34)C(=O)Nc3ccccc32)c2ccccc21`: the IC50 is 5.9 to 145 µM. The same measure for `O=C1Nc2ccccc2C1(c1cn(Cc2ccc(Br)cc2)c2ccccc12)c1cn(Cc2ccc(Br)cc2)c2ccccc12`: 5.9 to 145 µM; for `O=C1Nc2ccc(F)cc2/C1=N/Nc1nc(-c2ccc(F)cc2)cs1`: 5.3 to 35 µM; for `O=c1ccc2ccc(OCC(O)CSc3nnc(-c4ccccc4)c(-c4ccccc4)n3)cc2o1` (configuration not stated): 32 to 148 µM. The same measure for `O=C(CSc1nnc(-c2ccc(F)cc2)c(-c2ccc(F)cc2)n1)Nc1nc(-c2ccc(Cl)cc2)cs1`: 2.8 to 14 µM; for `O=C(CSc1nnc(-c2ccc(F)cc2)c(-c2ccc(F)cc2)n1)Nc1nc(-c2ccccc2)cs1`: 2.8 to 14 µM; for `O=C1Nc2ccccc2C1(c1cn(Cc2ccccc2)c2ccccc12)c1cn(Cc2ccccc2)c2ccccc12`: 5.9 to 145 µM. The same measure for `Cc1ccc(C(c2c[nH]c3ccc(C(=O)NNS(=O)(=O)c4ccc([N+](=O)[O-])cc4)cc23)c2c[nH]c3ccc(C(=O)NNS(=O)(=O)c4ccc([N+](=O)[O-])cc4)cc23)cc1`: 2.1 µM; for `COc1ccc(-c2ccc(O[C@H](C)Cn3cc(-c4ccc(C(F)(F)F)cc4)nn3)c(OC)c2)cc1`: 14 µM. `COc1ccc(-c2csc(NC(=O)CSc3nnc(-c4ccc(Br)cc4)c(-c4ccc(Br)cc4)n3)n2)cc1` displayed an IC50 of 2.8 µM. The same measure for `Cc1ccc(-c2csc(NC(=O)CSc3nnc(-c4ccc(Br)cc4)c(-c4ccc(Br)cc4)n3)n2)cc1`: 2.8 to 14 µM. The same measure for `O=C1Nc2ccccc2C1(c1cn(Cc2cccc(F)c2)c2ccccc12)c1cn(Cc2cccc(F)c2)c2ccccc12`: 5.9 to 145 µM; for `Cc1ccc(C(c2c[nH]c3ccc(C(=O)NNS(=O)(=O)c4cccc([N+](=O)[O-])c4)cc23)c2c[nH]c3ccc(C(=O)NNS(=O)(=O)c4cccc([N+](=O)[O-])c4)cc23)cc1`: 2.1 µM. The same measure for `COc1cc(Br)ccc1O[C@H](C)Cn1cc(-c2ccc(F)cc2)nn1`: 14 to 218 µM; for `Cc1ccc(C(c2c[nH]c3ccc(C(=O)NNS(=O)(=O)c4ccc([N+](=O)[O-])cc4[N+](=O)[O-])cc23)c2c[nH]c3ccc(C(=O)NNS(=O)(=O)c4ccc([N+](=O)[O-])cc4[N+](=O)[O-])cc23)cc1`: 0.5 µM; for `O=C(CSc1nnc(-c2ccccc2)c(-c2ccccc2)n1)Nc1nc(-c2ccccc2)cs1`: 2.8 to 14 µM. In turn, `O=C(CSc1nnc(-c2ccccc2)c(-c2ccccc2)n1)Nc1nc(-c2ccc(Cl)cc2)cs1` showed a concentration for half-maximal inhibition (IC50) of 2.8 to 14 µM. `O=c1oc2ccccc2cc1OCC(O)CSc1nnc(-c2ccc(F)cc2)c(-c2ccc(F)cc2)n1` (configuration not stated) returned an IC50 of 32 to 148 µM.

The molecule `CN1C(=O)/C(=N\Nc2nc(-c3ccc(F)cc3)cs2)c2ccccc21` came in with an IC50 of 5.3 to 35 µM. The same measure for `O=c1oc2ccccc2cc1OCC(O)CSc1nnc(-c2ccco2)c(-c2ccco2)n1` (configuration not stated): 32 to 148 µM; for `Cc1ccc(-c2csc(N/N=C3\C(=O)N(Cc4ccccc4F)c4ccc(C)cc43)n2)cc1`: 5.3 to 35 µM; for `COc1cc(-c2ccc(F)cc2)ccc1O[C@H](C)Cn1cc(-c2ccc(C(F)(F)F)cc2)nn1`: 14 to 218 µM. `O=c1ccc2ccc(OCC(O)CSc3nnc(-c4ccc(F)cc4)c(-c4ccc(F)cc4)n3)cc2o1` (configuration not stated) showed an IC50 of 32 to 148 µM.

`O=C(CSc1nnc(-c2ccc(Br)cc2)c(-c2ccc(Br)cc2)n1)Nc1nc(-c2ccc(Br)cc2)cs1` came in with a half-maximal inhibitory concentration (IC50) of 2.8 to 14 µM.

For the molecule `Cc1ccc(-c2csc(N/N=C3\C(=O)N(C)c4ccccc43)n2)cc1`, the IC50 was in the range of 5.3 to 35 µM. The same measure for `O=C1Nc2ccc(Cl)cc2/C1=N/Nc1nc(-c2ccc(Br)cc2)cs1`: 5.3 to 35 µM. The same measure for `O=c1oc2ccccc2cc1OCC(O)CSc1nnc(-c2cccc(Br)c2)c(-c2cccc(Br)c2)n1` (configuration not stated): 32 µM; for `Cc1ccc(C(c2c[nH]c3ccc(C(=O)NNS(=O)(=O)c4ccccc4[N+](=O)[O-])cc23)c2c[nH]c3ccc(C(=O)NNS(=O)(=O)c4ccccc4[N+](=O)[O-])cc23)cc1`: 2.1 µM. The same measure for `O=C1Nc2ccccc2/C1=N/Nc1nc(-c2ccc(Cl)cc2)cs1`: 5.3 to 35 µM. In the case of `O=C1Nc2ccccc2C1(c1c[nH]c2ccccc12)c1c[nH]c2ccccc12`, the half-maximal inhibitory concentration (IC50) was in the range of 5.9 to 145 µM. `COc1ccc(-c2csc(N/N=C3\C(=O)N(Cc4ccccc4F)c4ccc(C)cc43)n2)cc1` returned an IC50 of 5.3 to 35 µM.

For `Cc1cc(C)c2c(c1)/C(=N/Nc1nc(-c3ccc(F)cc3)cs1)C(=O)N2`, the 50% inhibitory concentration (IC50) lay in the range of 5.3 to 35 µM.

As for `COc1cc(Br)ccc1O[C@H](C)Cn1cc(-c2ccc(C(F)(F)F)cc2)nn1`, the IC50 is 14 to 218 µM. The same measure for `Cc1ccc(C(c2c[nH]c3ccc(C(=O)NNS(=O)(=O)c4ccc(Cl)c(Cl)c4)cc23)c2c[nH]c3ccc(C(=O)NNS(=O)(=O)c4ccc(Cl)c(Cl)c4)cc23)cc1`: 0.1 to 5.1 µM.

The molecule `CCCCn1cc(C2(c3cn(CCCC)c4ccccc34)C(=O)Nc3ccccc32)c2ccccc21` gave an IC50 of 5.9 to 145 µM.

In the case of `CC(C)Cn1cc(C2(c3cn(CC(C)C)c4ccccc34)C(=O)Nc3ccccc32)c2ccccc21`, the concentration for half-maximal inhibition (IC50) fell in the range of 5.9 to 145 µM.

`O=C(CSc1nnc(-c2ccccc2)c(-c2ccccc2)n1)Nc1nc(-c2ccc(Br)cc2)cs1` returned an IC50 of 2.8 to 14 µM. The same measure for `O=c1ccc2ccc(OCC(O)CSc3nnc(-c4ccco4)c(-c4ccco4)n3)cc2o1` (configuration not stated): 32 to 148 µM; for `O=C1Nc2ccc(Br)cc2C1(c1c[nH]c2ccccc12)c1c[nH]c2ccccc12`: 5.9 to 145 µM.

`O=C1Nc2ccccc2/C1=N/Nc1nc(-c2ccc(F)cc2)cs1` returned an IC50 of 5.3 to 35 µM. The same measure for `Cc1ccc2c(c1)/C(=N/Nc1nc(-c3ccc(O)cc3)cs1)C(=O)N2Cc1ccccc1F`: 5.3 µM; for `COC(=O)c1cn(C[C@@H](C)Oc2ccc(Br)cc2OC)nn1`: 14 to 218 µM; for `Cc1ccc2c(c1)C(c1c[nH]c3ccccc13)(c1c[nH]c3ccccc13)C(=O)N2`: 5.9 to 145 µM. As for `O=C1Nc2ccccc2C1(c1cn(Cc2ccccc2F)c2ccccc12)c1cn(Cc2ccccc2F)c2ccccc12`, the 50% inhibitory concentration (IC50) came out at 5.9 µM. In the case of `Cc1ccc2c(c1)/C(=N/Nc1nc(-c3ccc(O)cc3)cs1)C(=O)N2`, the half-inhibitory concentration (IC50) fell in the range of 5.3 to 35 µM.

For `COc1ccc(-c2csc(NC(=O)CSc3nnc(-c4ccccc4)c(-c4ccccc4)n3)n2)cc1`, the half-maximal inhibitory concentration (IC50) is 2.8 to 14 µM. The same measure for `CC(C)n1cc(C2(c3cn(C(C)C)c4ccccc34)C(=O)Nc3ccccc32)c2ccccc21`: 5.9 to 145 µM.
